Data published in ChEMBL document CHEMBL4819148, “Anti-protozoal and anti-fungal evaluation of 3,5-disubstituted 1,2-dioxolanes” (Bioorg Med Chem Lett, 2021).
In brackets after ≈: the same amount, converted by molar mass.

Experiments:
[1] = test system: Candida albicans; test: Antifungal activity against wild type Candida albicans; assay type: functional
[2] = test system: Plasmodium falciparum; test: Antimalarial activity against Plasmodium falciparum; assay type: functional, organism-based
[3] = Selectivity index, ratio of CC50 for cytotoxicity against HUVEC cells to IC50 for antiplasmodial activity against Plasmodium falciparum 3D7; assay type: toxicity, cell-based; conditions: human, read-out: Ratio CC50/IC50
[4] = test system: Leishmania donovani; test: Antileishmanial activity against axenic amastigote form of Leishmania donovani LV9 assessed as reduction in parasite growth; assay type: functional, organism-based
[5] = test system: Candida albicans; test: Antifungal activity against Candida albicans CAAL93 assessed as reduction in fungal growth; assay type: functional, organism-based
[6] = Selectivity index, ratio of CC50 for cytotoxicity against HUVEC cells to IC50 for antileishmanial activity against axenic amastigote form of Leishmania donovani LV9; assay type: toxicity, cell-based; conditions: human, read-out: Ratio CC50/IC50
[7] = test system: Aspergillus fumigatus; test: Antifungal activity against Aspergillus fumigatus ASFU76 assessed as reduction in fungal growth after; assay type: functional, organism-based
[8] = Cytotoxicity against HUVEC cells assessed as reduction in cell viability; assay type: cell-based; conditions: human
[9] = test system: Plasmodium falciparum; test: Antimalarial activity against Plasmodium falciparum 3D7 assessed as inhibition of parasite growth; assay type: functional, organism-based
[10] = test system: Leishmania donovani; test: Antileishmanial activity against intramacrophage form of Leishmania donovani LV9 assessed as reduction in parasite growth; assay type: functional, organism-based

Compound	MIC [1] [µM]	EC50 [2] [nM]	selectivity ratio [3]	IC50 [4] [µM]	IC50 [5] [µM]	selectivity ratio [6]	IC50 [7] [µM]	CC50 [8] [µM]	IC50 [9] [nM]	IC50 [10] [µM]
C=C/C=C/C=C\C=C\C=C\C=C/C=C\C[C@H]1C[C@@H](CC(=O)O)OO1	0.61 (≈ 0.2 µg/mL)	52	–	–	–	–	–	–	–	–
CCCCCCC1CCOO1 (configuration not stated)	–	–	< 10.6	49.8	> 100	0.2	> 100	10.6	> 1000	–
CCCCCCCCCCCCCCC[C@H]1C[C@@H](CC(=O)O)OO1	–	–	–	6.16	> 100	–	> 100	–	> 1000	–
CC(=O)OC1CC(CCO[Si](c2ccccc2)(c2ccccc2)C(C)(C)C)OO1 (mixture of isomers)	–	–	–	> 100	> 100	–	> 100	–	> 1000	–
C=CCC1CC(CCCCCC)OO1 (mixture of isomers)	–	–	7	> 100	25.2	< 0.01	> 100	0.7	100	–
CCCCCCCCCCCCCCC[C@H]1C[C@@H](CCO)OO1 (mixture of isomers)	–	–	–	5.57	> 100	–	> 100	–	> 1000	–
CCCCCCC1CC(OC(C)=O)OO1 (mixture of isomers)	–	–	< 57	70.7	> 100	0.82	> 100	57.8	> 1000	> 100
CCCCCCC1CC(C/C=C\Cl)OO1 (mixture of isomers)	–	–	40	1.5	33.4	4.09	> 100	6.13	150	28.4
CCCCCCC1CC(O)OO1 (mixture of isomers)	–	–	< 71	> 100	> 100	< 0.72	> 100	71.7	> 1000	> 100
C=C(C)CC1CC(CCCCCC)OO1 (mixture of isomers)	–	–	68	6.82	35.7	1.71	35.7	11.7	170	> 100
CC(=O)OC1CC(C2CCCCC2)OO1 (mixture of isomers)	–	–	–	56.6	> 100	–	> 100	–	> 1000	–
CC(C)C1CC(O)OO1 (mixture of isomers)	–	–	234	> 100	> 100	< 0.28	> 100	28.2	120	> 100
CCCCCCC1CC(C/C=C\Br)OO1 (mixture of isomers)	–	–	< 2	1.55	> 100	1.48	> 100	2.29	> 1000	33.6
CCCCCCC1CC(C#N)OO1 (mixture of isomers)	–	–	< 10	42.9	> 100	0.26	> 100	10.9	> 1000	> 100
CC(C)(C)C1CC(O)OO1 (mixture of isomers)	–	–	35	> 100	> 100	< 0.12	> 100	12.2	340	> 100
CCCCCCC1CC(CC(=O)SCC)OO1 (mixture of isomers)	–	–	7	1.88	> 100	1.01	> 100	1.89	250	38.9
C=CCC1CC(CCO[Si](c2ccccc2)(c2ccccc2)C(C)(C)C)OO1 (mixture of isomers)	–	–	–	> 100	> 100	–	> 100	–	> 1000	–
CC(=O)OC1CC(C(C)(C)C)OO1 (mixture of isomers)	–	–	628	> 100	> 100	< 0.13	> 100	12.6	20	44.3
CCCCCCC1CC(CC(=O)c2ccccc2)OO1 (mixture of isomers)	–	–	24	> 100	> 100	< 0.09	> 100	9.02	370	–
CCCCCCC1CC(CC(=O)Sc2ccccc2)OO1 (mixture of isomers)	–	–	< 1.8	2.2	> 100	0.83	> 100	1.82	> 1000	> 100
CC(=O)OC1CC(C(C)C)OO1 (mixture of isomers)	–	–	–	> 100	> 100	< 0.59	> 100	59.3	100	32.9
C=CCC1CC(C2CCCCC2)OO1 (mixture of isomers)	–	–	–	6.78	> 100	–	> 100	–	> 1000	–
CCCCCCC1CC(CC(=O)C(C)(C)C)OO1 (mixture of isomers)	–	–	< 6	4.42	> 100	1.38	> 100	6.09	> 1000	> 100
C[C@@H]1[C@H](O)[C@@H](C)/C=C/C=C/C=C/C=C/C=C/C=C/C=C/[C@H](O[C@@H]2O[C@H](C)[C@@H](O)[C@H](N)[C@@H]2O)C[C@@H]2O[C@](O)(C[C@@H](O)C[C@@H](O)[C@H](O)CC[C@@H](O)C[C@@H](O)CC(=O)O[C@H]1C)C[C@H](O)[C@H]2C(=O)O [AMPHOTERICIN B]	–	–	–	–	–	–	0.33	–	–	–
CCN(CC)CCCC(C)Nc1ccnc2cc(Cl)ccc12 (configuration not stated) [CHLOROQUINE]	–	–	–	–	–	–	–	31.5	–	–
OC(Cn1cncn1)(Cn1cncn1)c1ccc(F)cc1F [FLUCONAZOLE]	–	–	–	–	0.3	–	–	–	–	–
CCCCCCCCCCCCCCCCOP(=O)([O-])OCC[N+](C)(C)C [MILTEFOSINE]	–	–	–	1.7	–	32	–	54.3	–	0.61
